Among the data in PubChem BioAssay (NCI) are GI50 and TGI values, retold here.

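These data come from cells grown in 96-well plates and exposed to compound for 48 hours at five concentrations. GI50 = concentration required for 50% inhibition of growth. TGI denotes the concentration required for complete inhibition of growth.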

Some test systems named below: DU-145 prostate; KM12 colon; HL-60(TB) leukemia; NCI-H23 lung; LOX IMVI melanoma; BT-549 breast; HCC-2998 colon; IGROV1 ovarian; NCI/ADR-RES ovarian; UACC-62 melanoma.
Holding throughout (test): NCI anticancer screen, dose series, 48 h

Take `Cn1c(=O)c(Oc2ccccc2)cc2cnc(NC3CCOCC3)nc21`: the GI50 with DU-145 prostate, in the test on KM12 colon, in the test on HL-60(TB) leukemia, in the test with NCI-H23 lung, in the test with LOX IMVI melanoma and in the test with BT-549 breast was over 25 µM in each case. The GI50 in the test with HCC-2998 colon, with IGROV1 ovarian, with NCI/ADR-RES ovarian and in the test with UACC-62 melanoma was over 25 µM throughout. Further, the TGI in the test on DU-145 prostate, with KM12 colon, with HL-60(TB) leukemia, with NCI-H23 lung, in the test on LOX IMVI melanoma and in the test with BT-549 breast was over 25 µM each time. Moreover, the TGI in the test with HCC-2998 colon, with IGROV1 ovarian, with NCI/ADR-RES ovarian and in the test on UACC-62 melanoma was over 25 µM each time.

For `Fc1ccc2[nH]cc(SSc3c[nH]c4ccc(F)cc34)c2c1`, the GI50 was 11.6 µM with DU-145 prostate; 3.76 µM in the test on KM12 colon; 1.83 µM with HL-60(TB) leukemia; 16.7 µM in the test with NCI-H23 lung; 3.18 µM in the test with LOX IMVI melanoma; 4.94 µM with BT-549 breast. Further, the GI50 in the test with HCC-2998 colon is 6.34 µM; with IGROV1 ovarian, 5.35 µM; in the test with NCI/ADR-RES ovarian, 7.1 µM; with UACC-62 melanoma it was 2.83 µM. Moreover, the TGI in the test on DU-145 prostate was 31.1 µM; with KM12 colon it was 16.1 µM; in the test with HL-60(TB) leukemia, 6.57 µM; in the test with NCI-H23 lung it was 77.5 µM; with LOX IMVI melanoma it was 17.4 µM; in the test on BT-549 breast, 24.4 µM. Moreover, the TGI with HCC-2998 colon was 23.3 µM; with IGROV1 ovarian it was 20.8 µM; with NCI/ADR-RES ovarian, over 100 µM; in the test on UACC-62 melanoma, 13.8 µM.

For the compound `COc1ccc(/C=C/NC=O)cc1`, the TGI in the test with DU-145 prostate, with KM12 colon, in the test on HL-60(TB) leukemia, in the test with NCI-H23 lung, in the test with LOX IMVI melanoma and in the test on BT-549 breast was over 100 µM each time. Moreover, the TGI in the test with HCC-2998 colon, with IGROV1 ovarian, with NCI/ADR-RES ovarian and in the test with UACC-62 melanoma was over 100 µM each time.

`CCOC(=O)c1cc(C(=O)c2cc(OC)c(OC)c(OC)c2)n2ccccc12`: the GI50 was 0.175 µM in the test with DU-145 prostate; 0.0744 µM with KM12 colon; 0.0586 µM with HL-60(TB) leukemia; 0.34 µM in the test on NCI-H23 lung; 0.133 µM in the test with LOX IMVI melanoma; 0.0597 µM in the test with BT-549 breast. Besides, the GI50 was 0.37 µM in the test on HCC-2998 colon, 2.96 µM in the test on IGROV1 ovarian, 0.0523 µM with NCI/ADR-RES ovarian and 0.0439 µM in the test on UACC-62 melanoma. In addition, the TGI in the test on DU-145 prostate, with KM12 colon, in the test with NCI-H23 lung, with LOX IMVI melanoma, with BT-549 breast and with HCC-2998 colon was over 100 µM each time. The TGI in the test with IGROV1 ovarian is over 100 µM; in the test on NCI/ADR-RES ovarian it was 2.75 µM; in the test on UACC-62 melanoma it was over 100 µM.

Consider `C=C1C(=O)O[C@H]2[C@H]1CC/C(Cn1cc(-c3cc(C)c(C)cc3C)nn1)=C\CC[C@@]1(C)O[C@@H]21`, for which the GI50 in the test on DU-145 prostate is 1.35 µM; with KM12 colon it was 2.31 µM; in the test on HL-60(TB) leukemia it was 0.643 µM; in the test on NCI-H23 lung, 1.77 µM; in the test with LOX IMVI melanoma it was 0.725 µM; in the test on BT-549 breast it was 0.753 µM. For the same compound, the GI50 was 1.72 µM in the test with HCC-2998 colon, 1.29 µM in the test on IGROV1 ovarian, 2.51 µM in the test on NCI/ADR-RES ovarian and 1.13 µM in the test on UACC-62 melanoma. The TGI in the test with DU-145 prostate is 2.63 µM; with KM12 colon, 6.62 µM; in the test with HL-60(TB) leukemia, 3.69 µM; in the test with NCI-H23 lung, 3.99 µM; in the test on LOX IMVI melanoma, 2.1 µM; in the test with BT-549 breast it was 2.66 µM. The TGI in the test with HCC-2998 colon was 3.33 µM; with IGROV1 ovarian, 2.74 µM; in the test with NCI/ADR-RES ovarian, 12.9 µM; in the test on UACC-62 melanoma, 2.56 µM.

In the case of `NC1=Nc2cc(OCCCN3Cc4ccccc4C3)c(OCC3CC3)cc2C12CCCC2`, the GI50 with DU-145 prostate is 4.44 µM; in the test on KM12 colon it was 4.04 µM; with HL-60(TB) leukemia, 2.03 µM; with NCI-H23 lung it was 3.61 µM; in the test on LOX IMVI melanoma, 1.51 µM; in the test on BT-549 breast, 2.26 µM. For the same compound, the GI50 was 1.62 µM in the test on HCC-2998 colon, 4.17 µM in the test with IGROV1 ovarian, 2.91 µM in the test with NCI/ADR-RES ovarian and 1.9 µM in the test with UACC-62 melanoma. The TGI is 16.2 µM in the test with DU-145 prostate; 15.5 µM in the test with KM12 colon; 4.69 µM in the test with HL-60(TB) leukemia; 12.9 µM with NCI-H23 lung; 2.91 µM in the test with LOX IMVI melanoma; 7.84 µM in the test on BT-549 breast. Further, the TGI came out at 3.08 µM in the test with HCC-2998 colon, 17.2 µM with IGROV1 ovarian, 12 µM in the test on NCI/ADR-RES ovarian and 3.87 µM with UACC-62 melanoma.

Regarding `CCNCCCn1c2c(c3ccc([N+](=O)[O-])cc3c1=O)C(=O)c1cc(OC)cnc1-2`, the GI50 with DU-145 prostate was 0.0558 µM; with KM12 colon it was 0.197 µM; with HL-60(TB) leukemia, 0.037 µM; in the test on NCI-H23 lung, 0.0436 µM; in the test on LOX IMVI melanoma it was 0.0265 µM; with BT-549 breast, 0.172 µM. Moreover, the GI50 in the test with HCC-2998 colon is 0.151 µM; in the test on IGROV1 ovarian it was 0.184 µM; with NCI/ADR-RES ovarian, 0.0559 µM; in the test with UACC-62 melanoma, 0.0267 µM. Moreover, the TGI in the test with DU-145 prostate was found to be 1.16 µM; in the test with KM12 colon, 0.505 µM; in the test on HL-60(TB) leukemia it was 0.657 µM; in the test on NCI-H23 lung, 0.323 µM; with LOX IMVI melanoma, 0.131 µM; with BT-549 breast, 1.2 µM. Moreover, the TGI in the test with HCC-2998 colon was determined as 0.66 µM; in the test on IGROV1 ovarian it was 1.45 µM; in the test on NCI/ADR-RES ovarian, 0.689 µM; in the test on UACC-62 melanoma it was 0.168 µM.

Turning to `Cc1c(N=Cc2ccc(N(CCC#N)CCC#N)cc2)c(=O)n(-c2ccccc2)n1C`, the TGI with DU-145 prostate, with KM12 colon, in the test on HL-60(TB) leukemia, in the test with NCI-H23 lung, with LOX IMVI melanoma and in the test with BT-549 breast was over 100 µM each time. Also, the TGI in the test with HCC-2998 colon, with IGROV1 ovarian, with NCI/ADR-RES ovarian and in the test with UACC-62 melanoma was over 100 µM each time.
